This experiment deals with Regulator of G-protein signaling 4 (Homo sapiens, UniProt P49798). Description: RGS4-Galphao binding modulators, SAR follow-up, biochemical, multiplexed bead flow cytometry, SAR compounds (AID 2295). In general terms: A flow cytometer gives signals particle by particle.

pKi: −log10 of the molar value.

Data on one molecule can be found in BindingDB's records for doi:10.7270/Q27P8WVP (Nmmlsc, 2010).

What is called pKi is −log10 of the Ki, conventionally taken in molar units. A high value points to a small Ki.

Chain of Regulator of G-protein signaling 4 (P49798 whole entry): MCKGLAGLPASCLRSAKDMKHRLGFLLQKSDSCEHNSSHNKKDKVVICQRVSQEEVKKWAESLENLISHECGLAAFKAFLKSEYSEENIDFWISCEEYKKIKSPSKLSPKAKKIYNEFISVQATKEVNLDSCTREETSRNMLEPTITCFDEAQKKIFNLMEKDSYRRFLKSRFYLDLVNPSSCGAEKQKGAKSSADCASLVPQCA

In turn, `NS(=O)(=O)c1ccc(N=NCc2ccc(O)c(O)c2O)c([N+](=O)[O-])c1` [4-[[(E)-(2,3-dihydroxy-4-oxo-1-cyclohexa-2,5-dienylidene)methyl]hydrazo]-3-nitrobenzenesulfonamide] gave a pKi of 5.99.
